# According to US12083084B2, “Method for enhancing energy production and metabolism in cells” (REPLICON HEALTH OY, priority 2013, dated 2024):
# Values joined by “and” are separate entries in the source; they are usually repeats but may differ in a detail not shown here. Equal values may be shown once.
# Key:
# rat cortical neurons = assay: Protection against NMDA-induced excitotoxity; type: cell-based
# Experimental: Cell culture. Cortical neurons were dissected from P1 rats and cultured in 96-well plates up to 7 days in the medium containing: neurobasal medium, 1.5% B27 supplement, 1 mM L-glutamine, penicillin/streptomycin.
# Cell Viability/Cytotoxicity. Cell Viability was Detected by LDH Tests Like in Examples 1.1-1.2.
# Cell treatment: concentration of DGAcs (10, 50 and 100 μg/ml) was added into cell culture medium at 4 DIV. After 24 h (at 5 DIV) 25% of medium was changed to fresh containing 1.5× concentration of DGAcs. Same treatment (change 25% with 1.5× concentration) was repeated at 6 DIV. The cells were transferred into Mg^2+-free Locke's buffer containing the same concentrations of DGAcs immediately before imaging experiments (at 7 DIV). For controls the same amount of medium was changed without addition of DGAcs.
# In analyzing the results from the test set up starting at 7 DIV with 1 h NMDA stimulation (and 23 h follow up period), separate viability loss caused by CR can be taken into account by indexing 25 μM NMDA and 50 μM NMDA groups with the results of 0 NMDA control (see FIG. 14a). […] Even without correction for CR induced viability loss, DGAcs treatment induces very clear protection against NMDA-induced excitotoxity in 50 μM NMDA group (see FIG. 14b: “Viability after 24 hours with 1 h NMDA stimulation, indexed to 0 NMDA”)
# [1] = tested on: ethanol-dosed gastric cells; details: in vitro; cited from earlier work
# [2] = First set of clinical in vivo experiments, fasting blood test (Example 2.1); parameters: species or system human; details: for Headache after stopping twice a day administration: subjects S1-S3 (N = 3), 20-48 hours after last administration
# Experimental: In the first set of experiments presented in Example 2.1 all the blood measurements were conducted next day after last administration of DGAcs. In the longer experiments doses (3-5 mg/kg) were typically taken once a day (preferably in the evening before going to bed). In shorter 1-4 day experiments doses were taken twice a day, in the morning and before going to bed. In all experiments in Example 2.2 the last DGAcs dose was double in size (some 8 mg/kg), and it was taken in the same morning as the collection of blood samples. Relatively high dose and short time to measurement was chosen in order to see clearer dose response in gene expression from peripheral leukocytes, and also from collected plasma samples.
# Eight (8) persons completed controlled clinical testing with standard 10-12 hour fasting diet (f) blood test (sample analytics by United Medix Laboratories, Finland). There were four different types of clinical tests: first a 3 week test with low dose of DGA (N=3), secondly one 11 day test with bigger dose (N=1), and finally a 4 day test with high dose (N=4) and with low dose of DGA (N=2). Subjects 1 and 4 (in table 3) did the first three week test and then some months later also the separate 4 day test.
# Daily doses varied from 3-4 mg/kg/day in 3 week test to 6 mg/kg twice a day in 4 day test. General rule in the studies was that the shorter the period the higher the dose. In three week clinical tests fasting blood standard lipid panel and other basic readings were measured at the beginning and at the end of the test period.
# In the 4 day tests very wide fasting blood panel consisting of 25 different metrics was measured (see table 3 below), and additionally for some participants full blood count to measure more precise effect on erythrocytes and hemoglobin was carried out.
# Unlike in hepatocytes study (Example 1) clinical experiments were conducted in a fasting diet situation. Challenges for obtaining meaningful health indications from DGAcs administration arises from the fact that the study persons (aged 41-73) were all healthy volunteers, i.e. the blood values were mostly at very good levels, and thus improvements from the control are hard to achieve. Nevertheless the results from clinical testing show clear signs on the efficacy of DGA in improving systemic redox state of especially the cardiovascular system and also clear indications of increased overall metabolic flux. Specific markers for functioning of liver, kidneys, pancreas and spleen show improvement in general (see Table 4).
# [3] = Rate of ethanol oxidation in rats; type: in vivo, rat; details: AA rats given ethanol (1.2 per mille), not statistically significant
# Excerpt: In this experiment nutrition intake, except of course for DGAcs, was controlled to be exactly the same during the experimental day, and three day before the experiment. For AA rats, that are used to alcohol but didn't receive any alcohol in 3 day before the experiment, catabolic redox-activity in the cytosol was controlled by giving rats ethanol (equaling 1.2 per mille blood alcohol concentration, which represents only mild alcohol intoxication to the AA rats). The rate of ethanol oxidation remained the same in all groups.
# Experimental session started at 8:00 to 9:00 am. To diminish possible pain during the experiments, all animals were injected subcutaneously with buprenorphine (0.01 mg/kg) a few minutes before the blood samples. During the experimental session no difference in other metabolic activity, e.g. rate of ethanol oxidation, between the control and treatment group was detected from blood samples. […] The resulting supernatants were used for free glycerol measurement with an enzymatic end point commercial assay kit (Boehringer-Mannheim, R-Biopharm, Darmstadt, Germany) according to the manufacturer's protocol except that the assays were modified for use with small volumes of supernatant using a 96-well microplate reader (Labsystems Multiskan RS, Helsinki, Finland). […]
# [4] = 4 day, 5-6 mg/kg twice a day, healthy lean subjects S1-S4, fasting blood, change from zero control
# [5] = 4 day, 5-6 mg/kg twice a day, healthy lean subjects S1-S4, fasting blood, change from zero control, listed as DGA calcium salt
# [6] = S4 (healthy person), after 4 day test, fasting blood
smiles,measurement,setting,value
"O=C(O)[C@H](O)CO [DGA, D-glyceric acid]",excitotoxity repetition by the private CRO,"rat cortical neurons; confirmatory study, in line with first results",not statistically significant
same,viability of ethanol-dosed gastric cells,[1],increase viability
same,"fS-Trigly, increases in blood triglycerides",[2]; 5 subjects,Observed 25-50% increases in blood triglycerides
same,Headache after stopping twice a day administration,[2]; 4 day test,some symptoms of headache after 20-48
same,"fS-Lactate dehydrogenase (LDH), average decline","[2]; healthy volunteers (N = 3), 4 day test",some 4%. (Subject 3
same,"fS-Na (Sodium), average decline","[2]; healthy volunteers (N = 4), 4 day test",~1.5%.
same,"fS-Urate (uric acid), average decline","[2]; healthy volunteers (N = 6), 4 day test",test; average decline some 6%.
same,"fS-Cholesterol, average decline",[2]; healthy volunteers (N = 8),(only some 3-5%).
same,"fS-Chol.-HDL, average decline","[2]; healthy volunteers (N = 8), all periods and doses",~6%.
same,Diuretic effects,[2]; non-acute dose,Sodium decline in most
same,"fS-Urea, average decline",[2]; non-acute dose,some 7-8%.
same,"CK, creatinine kinase, average reduction in values","[2]; non-acute dose, N = 4",On average 25% reduction in values (N = 4).
same,"Bilirubin conj., average reduction in values","[2]; non-acute dose, N = 6",On average 20% reduction in values. N = 6
same,"Bilirubin, average reduction in values","[2]; non-acute dose, N = 6",On average some 20% reduction in values.
same,"fS-Asat, average reduction in values","[2]; non-acute dose, N = 6",On average 15-20% reduction
same,"fS-Fe, average reduction in values","[2]; non-acute dose, N = 6",On average 15% reduction in values. N = 6
same,fS-Alat,"[2]; non-acute dose, N = 8, when values were higher in the recommended range","improvement was observed, when values"
"O.O.O=C([O-])[C@H](O)CO.O=C([O-])[C@H](O)CO.[Ca+2] [DGAcs, D-glyceric acid, calcium salt dehydrate]",protection against NMDA-induced excitotoxity (LDH viability),"rat cortical neurons; 25 μM NMDA and 50 μM NMDA groups, 1 h NMDA at 7 DIV + 24 h, indexed to 0 NMDA",very clear and significant protection
same,Headache after stopping twice a day administration,[2]; 4 day test,slight headache
same,"HDL, 4 day change",[2]; [4],−5%
same,"LDL, 4 day change",[2]; [4],2%
same,"S-Afos, 4 day change",[2]; [4],−2%
same,"S-Alb, 4 day change",[2]; [4],−2%
same,"S-Amyl, 4 day change",[2]; [4],65%
same,"S-Bil, 4 day change",[2]; [4],−12.6% and −19%
same,"S-Bil-Kj, 4 day change",[2]; [4],−17%
same,"S-CK, 4 day change",[2]; [4],−22%
same,"S-Cal, 4 day change",[2]; [4],−2%
same,"S-GT, 4 day change",[2]; [4],11%
same,"S-K, 4 day change",[2]; [4],−2%
same,"S-LD (LDH), 4 day change",[2]; [4],−4%
same,"S-Mg, 4 day change",[2]; [4],−2%
same,"S-Na, 4 day change",[2]; [4],−1%
same,"S-Uraat, 4 day change",[2]; [4],−9.9% and −5%
same,"fS-Gluk, 4 day change",[2]; [4],2%
same,"fS-Kol, 4 day change",[2]; [4],−2%
same,"fS-Krea, 4 day change",[2]; [4],−4%
same,"fS-Pi, 4 day change",[2]; [4],18%
same,"fS-Transf, 4 day change",[2]; [4],10%
same,"fS-Transferr.satur., 4 day change",[2]; [4],−32%
same,"fS-Urea, 4 day change",[2]; [4],−7%
same,"HDL, 4 day change",[2]; [5],−4.5% and −3.3% and −9.1% and −5.9%
same,"S-Afos, 4 day change",[2]; [5],−2.1% and 0.0% and −5.8% and −6.3%
same,"S-Alb, 4 day change",[2]; [5],−2.2% and 0.0%
same,"S-Cal, 4 day change",[2]; [5],−1.7% and 0.0% and −2.2% and −2.5%
same,"S-LD (LDH), 4 day change",[2]; [5],−3.7% and −4.2% and −4.8%
same,"S-Mg, 4 day change",[2]; [5],−2.4% and 6.3% and −3.6% and 2.2%
same,"S-Na, 4 day change",[2]; [5],−1.4% and −2.1% and 0.7%
same,"S-Uraat, 4 day change",[2]; [5],−5.2% and −3.2% and −12.0% and −9.9%
same,"fS-Kol, 4 day change",[2]; [5],−1.6% and −5.7% and −6.4% and −3.2%
same,"fS-Krea, 4 day change",[2]; [5],−4.4% and −11.1% and −5.0% and −8.5%
same,AST/ALT (ratio) after treatment,"[2]; S1, earlier 4 day test (zero control 1.36)",1.05
same,AST/ALT,[2]; [6],1.10
same,S-Bil,[2]; [6],9.7
same,S-Uraat,[2]; [6],246
same,fS-Fe,[2]; [6],20.2
same,fS-Trigly,[2]; [6],1.73
same,average decline in blood urea,[2]; after 4 and 4.5 day administrations,approximately 9%
same,"rate of ethanol oxidation, maximum acceleration compared to control",[3],~3.6%
